# Laboratory results from US8765791B2, “Method of treating cancer using a neuropeptide Y 5R (NP Y5R) antagonist” (University Health Network, priority 2008, dated 2014).
# How the values were obtained:
# [1] = system: Hodgkin Lymphoma cells, HD-MYZ; assay: Hodgkin's lymphoma xenograft model, MK-0557 and 200464 (Example 16); format: in vivo; settings: for inhibition rate (tumor volume) / inhibition rate (tumor weight): versus vehicle
# From the text: Hodgkin lymphoma cells, HD-MYZ, were implanted in NOD-SCID mice, female, 4-6 weeks from Jackson's Laboratory (Maine). The treatments were started day 6 after tumor implantation. The mice were divided to six groups, 4-5 mice from each group. The treatment started with a tumor volume of about 70 mm3 after tumor implantation.
# [2] = system: Breast cancer cells, MDA MB 468; assay: breast cancer xenograft model (Example 11); format: in vivo, SCID mice; settings: 10 mg/kg i.p. 3/week, approximately 4 weeks
# Description: Breast cancer cells, MDA MB 468 (12 million), were injected subcutaneously (s.c.) on the neck of SCID mice (CB17, female, 4-6 weeks old) (Charles River, Wilmington, Mass.). The mice were divided into four groups, 5 mice for each group. The treatments were started when the tumor volume reached about 100 mm^3, day 22 after tumor implantation. […] The tumor sizes were monitored every 3 or 4 days. […] (FIG. 12)
# [3] = system: Breast cancer cells, MDA MB 468; assay: breast cancer xenograft model, MK0557 and 5-FU (Example 15); format: in vivo, CB17-SCID; settings: 5-FU alone, 30 mg/kg ip q.d.×5 days
# Description: Breast cancer cells, MDA MB 468, were injected into CB17-SCID. The treatments were started day 14 after tumor implantation. […] Tumor volume and tumor growth were monitored during the experiment.
# [4] = system: Hodgkin Lymphoma cells, HD-MYZ; assay: Hodgkin lymphoma xenograft model, MK0557 vs AVASTIN (Example 14); format: in vivo, NOD-SCID mice; settings: 5 mg/kg i.p. 1/week×3 weeks
# From the text: Hodgkin lymphoma cells, HD-MYZ, were implanted in NOD-SCID mice. […] Tumor volume and tumor growth were monitored during the experiment.
# [5] = system: Hodgkin Lymphoma cells, HD-MYZ; assay: Hodgkin lymphoma xenograft model (Example 12); format: in vivo, NOD-SCID mice; settings: 5 mg/kg i.p. 1/week, approximately 2 weeks
# From the text: Hodgkin lymphoma cells, HD-MYZ (1 million), were implanted s.c. on the right flank of NOD-SCID mice (Cat#001303, female, 4-6 weeks from Jackson laboratories, Bar Harbor, Me.). The mice were divided into four groups, 5 mice for each group. […] The tumor growth was monitored during the experiment. […] (FIG. 13)
# [6] = group 2: 200464 20 mg/kg i.p. 3 times for each week
# [7] = group 3: 200464 40 mg/kg i.p. 3 times for each week
molecule,measurement,setting,value
CC[C@@H]1C(=O)N(C)c2cnc(Nc3ccc(C(=O)NC4CCN(C)CC4)cc3OC)nc2N1C1CCCC1 [compound 200464],Mean Tumor Volume,[1]; [6],754.55+/−158.32 mm^3
same,Mean Tumor Weight,[1]; [6],0.8788 ± 0.2674 g
same,inhibition rate (tumor volume),[1]; [6],62.26%
same,inhibition rate (tumor weight),[1]; [6],5.42%
same,Mean Tumor Volume,[1]; [7],565.75+/−176.13 mm^3
same,Mean Tumor Weight,[1]; [7],0.5472 ± 0.2097 g
same,inhibition rate (tumor volume),[1]; [7],49.66%
same,inhibition rate (tumor weight),[1]; [7],41.11%
same,tolerability of the doses by the mice,"[1]; mouse, in vivo",well tolerated
"O=c1[nH]cc(F)c(=O)[nH]1 [5-FU, 5-fluorouracil]",tumor growth,[2],inhibited tumor growth
same,Mean Tumor Volume,[3],434.44±56.63 mm^3
same,Mean Tumor Weight,[3],0.1892 ± 0.026 g
same,inhibition rate (tumor volume),[3]; versus vehicle,32.35%
same,inhibition rate (tumor weight),[3]; versus vehicle,26.55%
bevacizumab [AVASTIN®],Mean Tumor Volume,[4],672.53±85.56 mm^3
same,Mean Tumor Weight,[4],0.33 ± 0.03 g
same,inhibition rate (tumor volume),[4]; versus vehicle,74.14%
same,inhibition rate (tumor weight),[4]; versus vehicle,86.96%
same,tumor growth,[5],inhibited tumor growth
